The source made the active and inactive calls. The calls are words filed in the database; no cut-off is given here.
Key:
[1] = test system: Epidermal growth factor receptor (Homo sapiens), P00533 [L861Q]; assay: Binding affinity to human partial length EGFR L861Q mutant (R669 to V1011 residues) expressed in bacterial expression system assessed as residual binding level at 10 uM by Kinomescan method relative to control
[2] = biological target: Dual specificity protein kinase CLK1 (Homo sapiens) (UniProt P49759); assay: Binding affinity to wild-type human full length CLK1 (M1 to I484 residues) expressed in bacterial expression system assessed as residual binding level at 10 uM by Kinomescan method relative to control
[3] = biological target: Serine/threonine-protein kinase 35 (Homo sapiens) (UniProt Q8TDR2); assay: Binding affinity to wild-type human partial length STK35 (G182 to A534 residues) expressed in bacterial expression system assessed as residual binding level at 10 uM by Kinomescan method relative to control
[4] = biological target: Casein kinase I isoform epsilon (Homo sapiens) (UniProt P49674); assay: Binding affinity to wild-type human full length CSNK1E (M1 to K416 residues) expressed in bacterial expression system assessed as residual binding level at 10 uM by Kinomescan method relative to control
[5] = biological target: Dual specificity mitogen-activated protein kinase kinase 3 (Homo sapiens) (UniProt P46734); assay: Binding affinity to wild-type human full length MEK3 (M1 to S318 residues) expressed in mammalian expression system assessed as residual binding level at 10 uM by Kinomescan method relative to control
[6] = biological target: Phosphatidylinositol 4,5-bisphosphate 3-kinase catalytic subunit alpha isoform (Homo sapiens) (UniProt P42336); assay: Binding affinity to wild-type human partial length PIK3CA (R108 to N1068 residues) expressed in mammalian expression system assessed as residual binding level at 10 uM by Kinomescan method relative to control
[7] = biological target: Tyrosine-protein kinase Blk (Homo sapiens) (UniProt P51451); assay: Binding affinity to wild-type human partial length BLK (G211 to L503 residues) expressed in bacterial expression system assessed as residual binding level at 10 uM by Kinomescan method relative to control
[8] = biological target: Serine/threonine-protein kinase MAK (Homo sapiens) (UniProt P20794); assay: Binding affinity to wild-type human partial length MAK (M1 to P314 residues) expressed in bacterial expression system assessed as residual binding level at 10 uM by Kinomescan method relative to control
[9] = biological target: Phosphatidylinositol 3-kinase C2 domain-containing subunit gamma (Homo sapiens) (UniProt O75747); assay: Binding affinity to wild-type human partial length PIK3C2G (M1 to I1446 residues) expressed in mammalian expression system assessed as residual binding level at 10 uM by Kinomescan method relative to control
[10] = biological target: Ephrin type-A receptor 7 (Homo sapiens) (UniProt Q15375); assay: Binding affinity to wild-type human partial length EPHA7 (Y608 to S912 residues) expressed in bacterial expression system assessed as residual binding level at 10 uM by Kinomescan method relative to control
[11] = biological target: Serine/threonine-protein kinase pim-3 (Homo sapiens) (UniProt Q86V86); assay: Binding affinity to wild-type human partial length PIM3 (G16 to A317 residues) expressed in bacterial expression system assessed as residual binding level at 10 uM by Kinomescan method relative to control
[12] = biological target: Ephrin type-B receptor 1 (Homo sapiens) (UniProt P54762); assay: Binding affinity to wild-type human partial length EPHB1 (P589 to T911 residues) expressed in bacterial expression system assessed as residual binding level at 10 uM by Kinomescan method relative to control
[13] = biological target: Serine/threonine-protein kinase 10 (Homo sapiens) (UniProt O94804); assay: Binding affinity to wild-type human partial length LOK (E16 to V314 residues) expressed in bacterial expression system assessed as residual binding level at 10 uM by Kinomescan method relative to control
[14] = biological target: STE20/SPS1-related proline-alanine-rich protein kinase (Homo sapiens) (UniProt Q9UEW8); assay: Binding affinity to wild-type human partial length STK39 (P43 to I357 residues) expressed in mammalian expression system assessed as residual binding level at 10 uM by Kinomescan method relative to control
[15] = biological target: Homeodomain-interacting protein kinase 2 (Homo sapiens) (UniProt Q9H2X6); assay: Binding affinity to wild-type human partial length HIPK2 (M153 to S564 residues) expressed in mammalian expression system assessed as residual binding level at 10 uM by Kinomescan method relative to control
[16] = biological target: Tyrosine-protein kinase Fgr (Homo sapiens) (UniProt P09769); assay: Binding affinity to wild-type human partial length FGR (L233 to T529 residues) expressed in bacterial expression system assessed as residual binding level at 10 uM by Kinomescan method relative to control
[17] = biological target: Tyrosine-protein kinase ABL2 (Homo sapiens) (UniProt P42684); assay: Binding affinity to wild-type human ABL2 (A248 to G542 residues) expressed in bacterial expression system assessed as residual binding level at 10 uM by Kinomescan method relative to control
[18] = biological target: Casein kinase I isoform delta (Homo sapiens) (UniProt P48730); assay: Binding affinity to wild-type human full length CSNK1D (M1 to K409 residues) expressed in bacterial expression system assessed as residual binding level at 10 uM by Kinomescan method relative to control
[19] = test system: Epidermal growth factor receptor (Homo sapiens), P00533 [L858R]; assay: Binding affinity to human partial length EGFR L858R mutant (R669 to V1011 residues) expressed in bacterial expression system assessed as residual binding level at 10 uM by Kinomescan method relative to control
[20] = test system: Neutrophil; assay: Inhibition of PMA-induced NETosis in human neutrophils at 25 uM preincubated for 30 mins followed by PMA stimulation and measured after 3 hrs by Hoechst […] staining based fluorescence microscopic analysis; type: functional, cell-based
[21] = biological target: Serine/threonine-protein kinase STK11 (Homo sapiens) (UniProt Q15831); assay: Binding affinity to wild-type human full length LKB1 (M1 to Q433 residues) expressed in bacterial expression system assessed as residual binding level at 10 uM by Kinomescan method relative to control
[22] = biological target: Serine/threonine-protein kinase PLK1 (Homo sapiens) (UniProt P53350); assay: Binding affinity to wild-type human partial length PLK1 (A33 to F325 residues) expressed in mammalian expression system assessed as residual binding level at 10 uM by Kinomescan method relative to control
[23] = biological target: Peripheral plasma membrane protein CASK (Homo sapiens) (UniProt O14936); assay: Binding affinity to wild-type human partial length CASK (M1 to H315 residues) expressed in mammalian expression system assessed as residual binding level at 10 uM by Kinomescan method relative to control
[24] = biological target: Cyclin-dependent kinase-like 5 (Homo sapiens) (UniProt O76039); assay: Binding affinity to wild-type human partial length CDKL5 (M1 to S337 residues) expressed in mammalian expression system assessed as residual binding level at 10 uM by Kinomescan method relative to control
[25] = biological target: Serine/threonine-protein kinase BRSK2 (Homo sapiens) (UniProt Q8IWQ3); assay: Binding affinity to wild-type human full length BRSK2 (M1 to L674 residues) expressed in bacterial expression system assessed as residual binding level at 10 uM by Kinomescan method relative to control

Sequence of Serine/threonine-protein kinase STK11 (Homo sapiens) (Q15831 whole entry, the tested form may be a part): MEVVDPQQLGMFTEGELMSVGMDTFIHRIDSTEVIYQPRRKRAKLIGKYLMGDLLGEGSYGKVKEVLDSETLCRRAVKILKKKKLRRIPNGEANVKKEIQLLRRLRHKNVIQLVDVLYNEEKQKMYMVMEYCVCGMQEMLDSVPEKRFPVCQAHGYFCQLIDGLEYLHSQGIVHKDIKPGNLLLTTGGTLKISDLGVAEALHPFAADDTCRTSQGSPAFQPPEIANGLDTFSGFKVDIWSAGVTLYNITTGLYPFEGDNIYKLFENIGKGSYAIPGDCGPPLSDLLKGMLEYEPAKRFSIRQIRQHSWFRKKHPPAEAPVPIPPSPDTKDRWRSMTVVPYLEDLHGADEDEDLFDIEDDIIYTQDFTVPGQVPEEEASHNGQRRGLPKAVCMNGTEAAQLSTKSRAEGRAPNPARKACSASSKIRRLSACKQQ
Sequence of Ephrin type-B receptor 1 (Homo sapiens) (P54762 whole entry, the tested form may be a part): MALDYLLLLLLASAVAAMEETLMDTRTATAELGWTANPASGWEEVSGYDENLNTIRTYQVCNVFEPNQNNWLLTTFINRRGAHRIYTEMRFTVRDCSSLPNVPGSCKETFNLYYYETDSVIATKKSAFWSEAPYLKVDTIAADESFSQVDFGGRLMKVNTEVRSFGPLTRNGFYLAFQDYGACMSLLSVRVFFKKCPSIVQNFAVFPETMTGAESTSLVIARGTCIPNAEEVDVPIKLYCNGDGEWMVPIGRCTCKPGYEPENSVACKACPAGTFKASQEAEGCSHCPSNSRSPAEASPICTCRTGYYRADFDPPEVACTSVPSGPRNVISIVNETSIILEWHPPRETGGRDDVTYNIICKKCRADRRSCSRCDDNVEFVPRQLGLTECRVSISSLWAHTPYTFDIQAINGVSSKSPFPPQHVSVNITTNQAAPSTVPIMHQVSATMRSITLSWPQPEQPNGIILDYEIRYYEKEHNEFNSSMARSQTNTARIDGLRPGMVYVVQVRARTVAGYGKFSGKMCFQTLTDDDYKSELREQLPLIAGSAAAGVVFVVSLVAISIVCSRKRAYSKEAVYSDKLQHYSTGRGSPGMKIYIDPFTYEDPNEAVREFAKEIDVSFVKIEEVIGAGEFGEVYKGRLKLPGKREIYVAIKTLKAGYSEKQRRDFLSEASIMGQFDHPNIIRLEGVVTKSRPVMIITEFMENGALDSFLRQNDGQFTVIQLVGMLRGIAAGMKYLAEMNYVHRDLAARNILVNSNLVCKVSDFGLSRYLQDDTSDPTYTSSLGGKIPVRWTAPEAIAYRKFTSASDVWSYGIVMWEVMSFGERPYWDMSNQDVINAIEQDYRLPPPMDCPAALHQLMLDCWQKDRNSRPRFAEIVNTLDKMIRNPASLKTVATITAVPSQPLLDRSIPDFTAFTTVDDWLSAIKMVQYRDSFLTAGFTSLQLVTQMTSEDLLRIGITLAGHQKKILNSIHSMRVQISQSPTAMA
Sequence of Casein kinase I isoform delta (Homo sapiens) (P48730 whole entry, looked up, the tested form may be a part, canonical isoform): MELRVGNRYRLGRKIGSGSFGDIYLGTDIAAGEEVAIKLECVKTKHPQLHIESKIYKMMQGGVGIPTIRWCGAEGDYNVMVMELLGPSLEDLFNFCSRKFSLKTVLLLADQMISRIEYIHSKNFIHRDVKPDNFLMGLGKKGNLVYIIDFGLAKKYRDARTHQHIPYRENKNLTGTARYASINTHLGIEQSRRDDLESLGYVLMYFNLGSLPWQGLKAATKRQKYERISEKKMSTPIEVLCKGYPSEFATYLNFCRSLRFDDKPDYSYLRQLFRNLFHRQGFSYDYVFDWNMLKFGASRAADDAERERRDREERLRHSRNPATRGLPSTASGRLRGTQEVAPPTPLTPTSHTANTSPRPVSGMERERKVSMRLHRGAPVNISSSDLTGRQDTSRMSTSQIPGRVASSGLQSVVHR
Sequence of Tyrosine-protein kinase ABL2 (Homo sapiens) (P42684 whole entry, the tested form may be a part, canonical isoform): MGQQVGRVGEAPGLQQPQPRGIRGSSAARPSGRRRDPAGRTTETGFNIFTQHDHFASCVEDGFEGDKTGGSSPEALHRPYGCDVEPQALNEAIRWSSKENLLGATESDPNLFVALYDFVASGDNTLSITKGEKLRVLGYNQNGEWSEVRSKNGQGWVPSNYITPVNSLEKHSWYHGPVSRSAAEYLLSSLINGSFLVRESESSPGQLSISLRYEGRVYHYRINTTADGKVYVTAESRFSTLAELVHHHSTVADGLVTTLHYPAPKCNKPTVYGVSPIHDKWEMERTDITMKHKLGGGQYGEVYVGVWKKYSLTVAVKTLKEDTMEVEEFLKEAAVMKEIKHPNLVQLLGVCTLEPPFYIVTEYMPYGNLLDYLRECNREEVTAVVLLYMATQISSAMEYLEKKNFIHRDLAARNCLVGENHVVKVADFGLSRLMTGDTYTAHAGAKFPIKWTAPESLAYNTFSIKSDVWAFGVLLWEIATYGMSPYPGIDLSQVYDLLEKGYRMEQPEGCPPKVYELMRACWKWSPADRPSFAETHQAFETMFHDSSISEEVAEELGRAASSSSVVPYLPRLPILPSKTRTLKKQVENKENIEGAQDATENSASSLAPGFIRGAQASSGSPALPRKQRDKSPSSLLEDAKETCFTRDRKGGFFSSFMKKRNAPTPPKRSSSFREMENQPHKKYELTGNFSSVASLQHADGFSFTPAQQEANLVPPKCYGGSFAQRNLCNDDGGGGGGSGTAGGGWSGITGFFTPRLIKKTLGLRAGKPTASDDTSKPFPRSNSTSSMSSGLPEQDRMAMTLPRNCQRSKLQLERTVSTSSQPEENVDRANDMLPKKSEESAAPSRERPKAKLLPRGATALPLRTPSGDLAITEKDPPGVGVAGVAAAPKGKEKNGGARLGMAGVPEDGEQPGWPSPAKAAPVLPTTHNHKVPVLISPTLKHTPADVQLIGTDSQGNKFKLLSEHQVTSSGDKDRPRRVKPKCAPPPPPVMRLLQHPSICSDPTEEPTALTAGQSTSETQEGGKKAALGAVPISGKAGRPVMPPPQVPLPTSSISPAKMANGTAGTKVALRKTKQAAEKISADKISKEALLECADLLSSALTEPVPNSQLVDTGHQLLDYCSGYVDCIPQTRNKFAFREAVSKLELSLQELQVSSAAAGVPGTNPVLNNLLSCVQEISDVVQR
Sequence of Phosphatidylinositol 3-kinase C2 domain-containing subunit gamma (Homo sapiens) (O75747 whole entry, the tested form may be a part): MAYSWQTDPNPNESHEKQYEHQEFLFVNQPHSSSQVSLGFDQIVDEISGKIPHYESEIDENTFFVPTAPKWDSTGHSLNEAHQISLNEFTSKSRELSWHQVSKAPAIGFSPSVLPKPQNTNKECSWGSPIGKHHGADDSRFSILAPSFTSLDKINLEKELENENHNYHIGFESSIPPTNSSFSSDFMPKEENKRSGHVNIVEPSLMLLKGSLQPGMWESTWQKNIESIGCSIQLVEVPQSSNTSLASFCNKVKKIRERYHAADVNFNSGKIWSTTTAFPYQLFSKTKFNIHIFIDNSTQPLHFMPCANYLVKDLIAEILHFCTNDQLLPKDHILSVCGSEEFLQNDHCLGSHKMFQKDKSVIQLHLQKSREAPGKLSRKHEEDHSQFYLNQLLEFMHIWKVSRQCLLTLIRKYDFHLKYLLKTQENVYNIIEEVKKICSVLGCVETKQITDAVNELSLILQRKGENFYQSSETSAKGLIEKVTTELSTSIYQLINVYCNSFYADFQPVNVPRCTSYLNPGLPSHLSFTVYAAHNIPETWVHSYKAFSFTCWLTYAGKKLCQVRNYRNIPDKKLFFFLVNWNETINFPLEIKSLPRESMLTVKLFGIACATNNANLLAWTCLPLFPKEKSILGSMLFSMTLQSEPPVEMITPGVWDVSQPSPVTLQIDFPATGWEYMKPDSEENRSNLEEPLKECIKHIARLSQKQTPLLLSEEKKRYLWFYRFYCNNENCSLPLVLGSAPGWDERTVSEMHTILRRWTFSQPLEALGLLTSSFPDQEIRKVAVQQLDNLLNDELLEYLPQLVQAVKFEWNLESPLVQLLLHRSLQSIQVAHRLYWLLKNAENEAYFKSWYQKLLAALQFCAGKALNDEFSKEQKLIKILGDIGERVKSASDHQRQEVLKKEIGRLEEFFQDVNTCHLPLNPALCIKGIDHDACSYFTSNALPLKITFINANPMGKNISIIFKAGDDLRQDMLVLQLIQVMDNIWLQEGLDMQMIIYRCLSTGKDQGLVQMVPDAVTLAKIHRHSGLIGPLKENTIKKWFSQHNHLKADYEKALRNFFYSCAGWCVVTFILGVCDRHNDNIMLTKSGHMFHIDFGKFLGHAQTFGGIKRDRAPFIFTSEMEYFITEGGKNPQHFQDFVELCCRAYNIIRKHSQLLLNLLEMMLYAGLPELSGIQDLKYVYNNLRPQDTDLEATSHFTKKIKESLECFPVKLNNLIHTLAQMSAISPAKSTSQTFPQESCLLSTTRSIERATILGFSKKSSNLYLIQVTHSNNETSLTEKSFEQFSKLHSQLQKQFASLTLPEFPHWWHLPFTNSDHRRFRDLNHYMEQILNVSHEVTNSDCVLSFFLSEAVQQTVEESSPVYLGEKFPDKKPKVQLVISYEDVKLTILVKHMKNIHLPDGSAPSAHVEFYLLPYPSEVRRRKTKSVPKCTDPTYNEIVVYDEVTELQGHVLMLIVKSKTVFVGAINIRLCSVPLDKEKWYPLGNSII
Sequence of Tyrosine-protein kinase Fgr (Homo sapiens) (P09769 2-529 limits assumed): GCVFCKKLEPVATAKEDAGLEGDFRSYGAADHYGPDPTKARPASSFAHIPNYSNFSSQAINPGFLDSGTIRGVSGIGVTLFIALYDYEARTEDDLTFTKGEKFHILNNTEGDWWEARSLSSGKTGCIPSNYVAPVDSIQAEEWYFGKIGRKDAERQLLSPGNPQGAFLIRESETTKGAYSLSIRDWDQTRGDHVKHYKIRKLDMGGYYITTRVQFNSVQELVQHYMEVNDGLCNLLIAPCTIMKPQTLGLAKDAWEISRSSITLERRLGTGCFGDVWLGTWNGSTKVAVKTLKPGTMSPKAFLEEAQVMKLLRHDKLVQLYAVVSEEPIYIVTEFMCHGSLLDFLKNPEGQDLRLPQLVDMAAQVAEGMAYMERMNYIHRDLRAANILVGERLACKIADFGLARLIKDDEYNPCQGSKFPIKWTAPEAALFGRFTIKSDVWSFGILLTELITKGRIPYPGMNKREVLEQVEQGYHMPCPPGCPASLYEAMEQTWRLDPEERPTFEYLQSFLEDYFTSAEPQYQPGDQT

Question: `CC(C)N1C(=O)C(NCCCN(C)C)=C(c2cn(C)c3ccccc23)C1=O.Cl` was tested. Which Activity [1] did it give?
Answer: 80%

Question: What about the Activity [2] of the same compound?
Answer: 98%

Question: What about the Activity [3] of the same compound?
Answer: 100%

Question: What about the Activity [4] of the same compound?
Answer: 89%

Question: And the Activity [5]?
Answer: 97%

Question: And the Activity [6]?
Answer: 76%

Question: And the Activity [7]?
Answer: 98%

Question: What about the Activity [8] of the same compound?
Answer: 100%

Question: And the Activity [9]?
Answer: 84%

Question: And the Activity [10]?
Answer: 93%

Question: What about the Activity [11] of the same compound?
Answer: 98%

Question: And the Activity [12]?
Answer: 99%

Question: What about the Activity [13] of the same compound?
Answer: 88%

Question: What about the Activity [14] of the same compound?
Answer: 98%

Question: What about the Activity [15] of the same compound?
Answer: 100%

Question: What about the Activity [16] of the same compound?
Answer: 82%

Question: What about the Activity [17] of the same compound?
Answer: 98%

Question: And the Activity [18]?
Answer: 100%

Question: And the Activity [19]?
Answer: 82%

Question: What about the inhibition [20] of the same compound?
Answer: Active

Question: And the Activity [21]?
Answer: 91%

Question: What about the Activity [22] of the same compound?
Answer: 85%

Question: And the Activity [23]?
Answer: 92%

Question: What about the Activity [24] of the same compound?
Answer: 96%

Question: What about the Activity [25] of the same compound?
Answer: 86%

From ChEMBL document CHEMBL4304811, “Development of a Water-Soluble Indolylmaleimide Derivative IM-93 Showing Dual Inhibition of Ferroptosis and NETosis” (ACS Med Chem Lett, 2019)
